Measurements published in ChEMBL document CHEMBL1201862, “PubChem BioAssay data set” (2004).
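Compound exposure: 48 hours, 5 concentrations, 96-well plates. GI50 = concentration required for 50% inhibition of growth.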 Calls of active or inactive are those of the source. Rule as the data show it: active = GI50 up to about 1.1 µM and inactive = higher. Where a SMILES comes first, the peptide text is derived from it.

Legend:
Assay in all cases: NCI-60 cell line screen, 48 h
LXFL 529 = test system: LXFL 529
BT-549 = test system: BT-549
Hs-578T = test system: Hs-578T
DU-145 = test system: DU-145
MDA-MB-231 = test system: MDA-MB-231
MDA-N = test system: MDA-N
T47D = test system: T47D

Cc1cc(O)nc(NN2C(Cl)C(=O)C2c2ccc([N+](=O)[O-])cc2)n1 (stereo not drawn)
GI50 (LXFL 529): 7.67 µM (inactive)

CCOc1ccc(/C=C2\N=C(c3ccccc3)OC2=O)cc1
GI50 (BT-549): > 100 µM (inactive) | GI50 (Hs-578T): > 100 µM (inactive)

CCCCN1C(=O)NC(Cc2ccccc2)C1=O (stereo not drawn)
GI50 (LXFL 529): > 100 µM (inactive)

NC(=O)C1CCCN1C(=O)C(N)Cc1ccccc1 (stereo not drawn) (H-Phe-Pro-NH2; configuration not given here)
GI50 (DU-145): > 100 µM (inactive) | GI50 (MDA-MB-231): > 100 µM (inactive) | GI50 (MDA-N): > 100 µM (inactive) | GI50 (T47D): > 100 µM (inactive)
